Legend:
[1] = system: LTB4 release from MPRO cell line; experiment: LTB4-cell assay; assay type: cell-based; conditions: Mus musculus; differentiated MPRO cells, 1 μM A23187, 1 hour; read-out: EC50, inhibition of LTB4
Experimental: This procedure was used for measuring the release of the leukotriene LTB4 from a neutrophil cell line using a competitive ELISA technique.
A mouse promyelocytic cell line (MPRO) was used in this assay. These cells are committed immature neutrophils that can be differentiated into mature neutrophils by treatment with 10 μM all-trans retinoic acid for 72 hours
Following 72 hours of differentiation, cells were stimulated with 1 μM of a calcium ionophore (A23187) in the presence or absence of test compound or vehicle for 1 hour at 37° C. After this time, supernatant was removed from the cells and the LTB4 levels were determined following manufacturer's instructions, using a Leukotriene B4 EIA kit from Cayman (Cat # 520111)
The negative controls were media samples from differentiated but unstimulated cells.
The compounds were screened at 5 concentrations in quadruplicate starting at 10 μM

[2] = target: T1, human recombinant 5-lipoxygenase (Homo sapiens, UniProt P09917); experiment: 5-Lipoxygenase enzyme assay; assay type: biochemical; conditions: 70 μM arachidonic acid, pH 7.4
T1 construct: purchased Cayman 60402
T1 sequence (P09917 1-674): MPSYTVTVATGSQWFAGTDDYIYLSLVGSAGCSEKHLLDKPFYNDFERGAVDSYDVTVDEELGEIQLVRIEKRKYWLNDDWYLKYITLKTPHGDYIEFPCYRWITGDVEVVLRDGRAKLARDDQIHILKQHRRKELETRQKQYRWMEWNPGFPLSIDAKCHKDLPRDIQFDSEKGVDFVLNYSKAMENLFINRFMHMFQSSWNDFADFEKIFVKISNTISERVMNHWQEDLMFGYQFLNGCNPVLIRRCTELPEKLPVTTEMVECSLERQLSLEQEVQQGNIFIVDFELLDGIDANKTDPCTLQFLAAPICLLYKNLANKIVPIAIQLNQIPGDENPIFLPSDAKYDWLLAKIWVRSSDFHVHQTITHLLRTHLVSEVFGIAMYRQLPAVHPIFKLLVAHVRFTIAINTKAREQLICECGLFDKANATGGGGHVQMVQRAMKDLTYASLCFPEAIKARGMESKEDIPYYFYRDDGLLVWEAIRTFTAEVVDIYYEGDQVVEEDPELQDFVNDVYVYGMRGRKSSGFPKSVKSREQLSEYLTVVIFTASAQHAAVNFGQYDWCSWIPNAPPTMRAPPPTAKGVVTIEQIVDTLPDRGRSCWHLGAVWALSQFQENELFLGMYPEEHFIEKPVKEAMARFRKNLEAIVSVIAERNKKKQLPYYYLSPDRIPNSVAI
Experimental: This procedure was used for measuring the enzymatic activity of human recombinant 5-lipoxygenase using a […] method based on the ferric oxidation of xylenol orange.
Human recombinant 5-lipoxygenase (Cayman Cat # 60402) was used in this assay. The test compound and/or vehicle was added to 0.5U 5-lipoxygenase in 50 mM Tris-HCl buffer, pH 7.4. The reaction was initiated by addition of 70 μM arachidonic acid in Tris-HCl buffer, pH 7.4, and terminated after a 10 minute incubation at room temperature by addition of FOX reagent (25 mM sulphuric acid, 100 μM xylenol orange, 100 μM iron (II) sulphate, methanol:water 9:1). The yellow color of acidified xylenol orange was converted to a blue color by the lipid hydroperoxide-mediated oxidation of Fe^2+ ions and the interaction of the resulting Fe^3+ ions with the dye. The complex was allowed to form during a 1 hour incubation at room temperature with shaking. Absorbance of the Fe^3+ complex was then measured at […] using a spectrophotometer.
Negative controls contained enzyme during the incubation step but substrate was not added until after the FOX reagent.
Compounds were screened at 5 concentrations in triplicate starting at 10 μM

[3] = system: dopaminergic neuronal cell line; experiment: High glutamate-induced oxidative stress assay (HGOS); assay type: cell-based; conditions: Mus musculus; 30 mM glutamate, 16 hrs; read-out: EC50, protection against HGOS cell injury and cell death
Description: Protection against redox stress can be further evaluated in cell culture using high glutamate induced oxidative stress (HGOS) in mouse dopaminergic cell lines. The cytotoxic effect of glutamate is not due to excitotoxicity, as this cell line is devoid of inotropic glutamate receptors. Rather, the glutamate-induced toxicity of dopaminergic cells is associated with an inhibition of cystine transport which subsequently leads to depletion of intracellular glutathione (GSH) levels (Murphy T. H., et al. Neuron 2, 1547-1558, 1989), activation of neuronal 12-lipoxygenase (Li, Y. et al., Neuron 19, 453-463, 1997), increased ROS production (Tan S. et al., J. Cell Biol. 141, 1423-1432, 1998) and elevated intracellular Ca^2+ (Li, Y. et al., see supra). Some molecules were measured for their ability to protect cells against glutamate-induced stress and the assay is detailed in Examples.
This procedure was used to induce high glutamate-induced oxidative stress (HGOS) in a dopaminergic neuronal cell line. Using this assay the potency and efficacy of test articles against HGOS neuronal cell injury and cell death was established in a high throughput manner.
The cells were seeded into 96-well plates at a density of 2000 per well and left to grow for 72 hours in a 33° C. incubator with 5% CO2 in air atmosphere. The passage number of the cells for each assay experiment were no later than p11 in order to minimize experimental variation.
All compounds were dissolved in DMEM-No Glu containing 1 mM glucose, 30 mM glutamate and 1×Pen/Strep. DMEM-No Glu with 1 mM glucose and 1×P/S was used as the negative control, DMEM-No Glucose with 1 mM glucose, […] was used as a positive control and 100 μM Glutathione was added to the positive control as a standard. All of the procedures for this involving the making and dilution of compounds were performed using aseptic conditions and with minimal light.
The plates were removed from the incubator and examined under the microscope for morphological appearance and density. Using an aseptic technique and an 8-channel aspirator the media was carefully removed from the cells and replaced with 200 μl of 1×HBSS. This was done as quickly as possible to prevent the cells drying out. The plates were then placed in the humidified 37° C. incubators of the Biomek 2000 Side Loader. Four plates were washed at a time so as to minimize the time that the cells were sitting in 1×HBSS prior to addition of the compound test solution.
The Beckman Biomek workstations were used to load the compounds and controls from the mother plates onto the cell plates that were prewashed with HBSS under sterile conditions. The plates were incubated in the upper HTS incubator at 37° C. in 5% CO2 for exactly 16 hrs. The following day, using the Beckman Biomek workstations, the plates were removed from the incubator. Using Cell Tracker Addition, the compounds were removed from the plates, washed once with […] of pre-warmed 1×HBSS and then 100 μL of 5 μM Cell Tracker Green was added to each well. The plates were incubated at 37° C. for 30 min to allow the dye to enter the cell and be cleaved by the esterases. After washing the cells twice with prewarmed 1×HBSS, the plates were read with the 485 excitation; 538 emission filter pair on a Fluoroskan.

[4] = system: LTB4 production in heparinized whole blood; experiment: Inhibition of LTB4 production in blood; assay type: cell-based, rat or mouse; conditions: 20 μM A23187, read-out: EC50, protection against LTB4
Experimental: The blood was collected in heparinized tubes or syringes to prevent clotting. Heparin was at 20 USP U/ml. About 3-5 ml of blood was collected per rat and about 0.5-0.75 ml per mouse. This assay required 200 μl/data point, therefore a 96 well plate requires 20 ml.
The Calcium ionophore A23187 was prepared as a 10 mM stock solution in DMSO and the test agent is prepared in DMSO so that <1 μl DMSO will be added to the well
200 μl blood per well were added in a round bottom 96 well clear plastic 96 well plate followed by the test agent. After 10 minutes incubation at 37° C., 5 μl of Calcium ionophore A23187 for a final concentration of 20 μM were added and mixed, and further incubated for 30 min. After 1000×g centrifugation to pellet blood cells, 20 μl plasma was carefully removed.
20 μl plasma were added to 80 μl methanol to precipitate protein and mixed. This was further incubated 10 min. at room temperature and centrifuged at 1000×g to pellet protein.
Following manufacturer's instructions, the commercially available EIA kit was used to subsequently measure the LTB4 production in the samples. The LTB4 levels produced in the vehicle control sample were then compared to those in which the test compound had been added. From this a percent inhibition of LTB4 production by each concentration of test compound was calculated and the IC50 for inhibition of LTB4 production for each test compound was determined.

| Compound | EC50 [3] [nM] | further results |
| --- | --- | --- |
| CN(C)CC(=O)Oc1cc2c(c3c1C1CCC3CC1)OC(C)(C)CC2 [Dimethylamino-acetic acid 2,2-dimethyl-3,4,7,8,9,10-hexahydro-7,10-ethano-2H-benzo[h]chromen-6-yl ester] |  | EC50 [1]: ≤ 5000 nM |
| COC(=O)CCC1(C)CCc2cc(O)c3c(c2O1)C1CCC3CC1 (stereo not drawn) [3-(6-Hydroxy-2-methyl-3,4,7,8,9,10-hexahydro-7,10-ethano-2H-benzo[h]chromen-2-yl)-propionic acid methyl ester] |  | IC50 [2]: ≤ 5000 nM |
| CC1=NN(c2ccc(C(=O)O)cc2)C(=O)C1=Cc1c(O)c2c(c3c1CCC(C)(C)O3)C1CCC2C1 (stereo not drawn) [4-[4-(6-Hydroxy-2,2-dimethyl-3,4,7,8,9,10-hexahydro-7,10-methano-2H-benzo[h]chromen-5-ylmethylene)-3-methyl-5-oxo-4,5-dihydro-pyrazol-1-yl]-benzoic acid] | ≤ 1000 |  |
| CC1(C)CCc2c(Br)c(O)c3c(c2O1)C1CCC3CC1 [5-Bromo-2,2-dimethyl-3,4,7,8,9,10-hexahydro-7,10-ethano-2H-benzo[h]chromen-6-ol] | ≤ 1000 | EC50 [4]: ≤ 10000 nM; IC50 [2]: ≤ 5000 nM |
| CC(C)=CCc1c(O)c2c(c3c1C=CC(C)(C)O3)C1CCC2C1 (stereo not drawn) [2,2-Dimethyl-5-(3-methyl-but-2-enyl)-7,8,9,10-tetrahydro-7,10-methano-2H-benzo[h]chromen-6-ol] | ≤ 1000 |  |
| CC1(CCCSc2nc3ccccc3s2)CCc2cc(O)c3c(c2O1)C1CCC3CC1 (stereo not drawn) [2-[3-(Benzothiazol-2-ylsulfanyl)-propyl]-2-methyl-3,4,7,8,9,10-hexahydro-7,10-ethano-2H-benzo[h]chromen-6-ol] | ≤ 1000 |  |
| CC1(C)CCc2c(CO)c(O)c3c(c2O1)C1CCC3C1 (stereo not drawn) [5-Hydroxymethyl-2,2-dimethyl-3,4,7,8,9,10-hexahydro-7,10-methano-2H-benzo[h]chromen-6-ol] | ≤ 1000 |  |
| CC1(CCC(=O)OCc2ccccc2)CCc2cc(O)c3c(c2O1)C1CCC3CC1 (stereo not drawn) [3-(6-Hydroxy-2-methyl-3,4,7,8,9,10-hexahydro-7,10-ethano-2H-benzo[h]chromen-2-yl)-propionic acid benzyl ester] |  | IC50 [2]: ≤ 5000 nM |
| CCCC1=NN(C)C(=O)/C1=C\c1c(O)c2c(c3c1CCC(C)(C)O3)C1CCC2C1 (stereo not drawn) [4-(6-Hydroxy-2,2-dimethyl-3,4,7,8,9,10-hexahydro-7,10-methano-2H-benzo[h]chromen-5-ylmethylene)-2-methyl-5-propyl-2,4-dihydro-pyrazol-3-one] | ≤ 1000 | EC50 [4]: ≤ 10000 nM |
| COC(=O)CCC1(C)CCc2cc(O)c3c(c2O1)C1CCCC3CC1 (stereo not drawn) [3-(6-Hydroxy-2-methyl-3,4,7,8,9,10-hexahydro-7,10-propano-2H-benzo[h]chromen-2-yl)-propionic Acid Methyl Ester] | ≤ 1000 | IC50 [2]: ≤ 5000 nM |
| COP(=O)(CCCC1(C)CCc2cc(O)c3c(c2O1)C1CCC3C1)OC (stereo not drawn) [[3-(6-Hydroxy-2-methyl-3,4,7,8,9,10-hexahydro-7,10-methano-2H-benzo[h]chromen-2-yl)-propyl]-phosphonic Acid Dimethyl Ester] |  | EC50 [4]: ≤ 10000 nM |
| CC(C)=CCc1c(O)c2c(c3c1CCC(C)(C)O3)C1CCC2CC1 [2,2-Dimethyl-5-(3-methyl-but-2-enyl)-3,4,7,8,9,10-hexahydro-7,10-ethano-2H-benzo[h]chromen-6-ol] | ≤ 1000 |  |
| CC(=O)Oc1c(CC=C(C)C)c2c(c3c1C1CCC3C1)OC(C)(C)C=C2 (stereo not drawn) [Acetic acid 2,2-dimethyl-5-(3-methyl-but-2-enyl)-7,8,9,10-tetrahydro-7,10-methano-2H-benzo[h]chromen-6-yl ester] | ≤ 1000 |  |
| COC12CCC(CC1)c1c(O)cc3c(c12)OC(C)(C)CC3 [10-Methoxy-2,2-dimethyl-3,4,7,8,9,10-hexahydro-7,10-ethano-2H-benzo[h]chromen-6-ol] |  | IC50 [2]: ≤ 5000 nM |
| CC1(C)CCc2c(CC=C3CCCCC3)c(O)c3c(c2O1)C1CCC3CC1 [5-(2-Cyclohexylidene-ethyl)-2,2-dimethyl-3,4,7,8,9,10-hexahydro-7,10-ethano-2H-benzo[h]chromen-6-ol] | ≤ 1000 |  |
| CC(=O)Oc1c(CCC(C)C)c2c(c3c1C1CCC3C1)OC(C)(C)CC2 (stereo not drawn) [Acetic acid 2,2-dimethyl-5-(3-methyl-butyl)-3,4,7,8,9,10-hexahydro-7,10-methano-2H-benzo[h]chromen-6-yl ester] | ≤ 1000 |  |
| CC1(C)CCc2c(C=C3C(=O)Oc4ccc(O)cc43)c(O)c3c(c2O1)C1CCC3C1 (stereo not drawn) [5-Hydroxy-3-(6-hydroxy-2,2-dimethyl-3,4,7,8,9,10-hexahydro-7,10-methano-2H-benzo[h]chromen-5-ylmethylene)-3H-benzofuran-2-one] | ≤ 1000 |  |
